Results on one molecule are retold here after PMC9614474 (Plant Physiology, 2022).

For the assay, the target named is T1, ChElp2 (Colletotrichum higginsianum, UniProt H1UVH3).
T1 construct: gene ELP2
Particulars: 25 °C.

T1 sequence (H1UVH3 19-176): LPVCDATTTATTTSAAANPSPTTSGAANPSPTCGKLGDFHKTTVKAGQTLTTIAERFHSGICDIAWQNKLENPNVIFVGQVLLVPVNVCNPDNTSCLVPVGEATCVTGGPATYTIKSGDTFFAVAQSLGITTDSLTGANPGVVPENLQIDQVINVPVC

For orientation: Kd means the free concentration of one partner at which half of the binding sites on the other are occupied at equilibrium, for simple one-to-one binding. With `CC(=O)N[C@H]1[C@H](O[C@H]2[C@H](O)[C@@H](NC(C)=O)[C@H](O[C@H]3[C@H](O)[C@@H](NC(C)=O)C(O)O[C@@H]3CO)O[C@@H]2CO)O[C@H](CO)[C@@H](O[C@@H]2O[C@H](CO)[C@@H](O[C@@H]3O[C@H](CO)[C@@H](O[C@@H]4O[C@H](CO)[C@@H](O)[C@H](O)[C@H]4NC(C)=O)[C@H](O)[C@H]3NC(C)=O)[C@H](O)[C@H]2NC(C)=O)[C@@H]1O` (stereo partly shown) [Chi6, hexaacetylchitohexaose], the Kd is 5.03 ± 0.241 µM.
